Laboratory results published in US9394305B2, “Substituted imidazo[1,2-a]pyridine compounds as tropomyosin receptor kinase a (TrkA) inhibitors” (Dr. Reddy's Laboratories Ltd., priority 2014, dated 2016).

Molecular target: T1, TrkA kinase (Homo sapiens, UniProt P04629)
T1 construct: purchased Upstate, USA
Test: In vitro TrkA inhibitory activity using TR-FRET assay
Format: biochemical
Settings: 5 ng TrkA, 500 μM ATP, values given as bins, read-out: TrkA inhibition in-vitro IC50
Procedure: Compounds were screened in the TR-FRET assay with TrkA kinase. 5 ng of TrkA [Upstate, USA] kinase was used for assay. The compound was incubated with the kinase for 30 minutes at 20-35° C. After the incubation, substrate mix [40 nM Ultra light poly GT (Perkin Elmer, USA) and 500 μM ATP] was added. The above reaction was stopped by the addition of 40 mM EDTA after 30 minutes. The Eu-labelled antiphospho-tyrosine antibody [Perkin Elmer, USA] was added at 0.5 nM and the fluorescence emission at 615 nm/665 nm [excitation at 340 nm] was measured. The compounds were initially screened at 100 nM, 1 μM and 10 μM concentrations. The potent compounds with >25% inhibition at 1 μM of TrkA were taken for the full dose response studies. The final DMSO concentration in the assay was […]. For IC50 determination, ⅓^rd serial dilution was made from the 20 mM DMSO stock solution. 2 μl of these were transferred to the test wells containing 20 μl reaction mixture [Total reaction volume 22 μl]. The fluorescence was measured in Perkin Elmer Wallac 1420 Multilabel Counter Victor 3. The IC50 was determined by fitting the dose response data to a sigmoidal curve fitting equation using GraphPad Prism software version 5.

T1 sequence (P04629 33-796): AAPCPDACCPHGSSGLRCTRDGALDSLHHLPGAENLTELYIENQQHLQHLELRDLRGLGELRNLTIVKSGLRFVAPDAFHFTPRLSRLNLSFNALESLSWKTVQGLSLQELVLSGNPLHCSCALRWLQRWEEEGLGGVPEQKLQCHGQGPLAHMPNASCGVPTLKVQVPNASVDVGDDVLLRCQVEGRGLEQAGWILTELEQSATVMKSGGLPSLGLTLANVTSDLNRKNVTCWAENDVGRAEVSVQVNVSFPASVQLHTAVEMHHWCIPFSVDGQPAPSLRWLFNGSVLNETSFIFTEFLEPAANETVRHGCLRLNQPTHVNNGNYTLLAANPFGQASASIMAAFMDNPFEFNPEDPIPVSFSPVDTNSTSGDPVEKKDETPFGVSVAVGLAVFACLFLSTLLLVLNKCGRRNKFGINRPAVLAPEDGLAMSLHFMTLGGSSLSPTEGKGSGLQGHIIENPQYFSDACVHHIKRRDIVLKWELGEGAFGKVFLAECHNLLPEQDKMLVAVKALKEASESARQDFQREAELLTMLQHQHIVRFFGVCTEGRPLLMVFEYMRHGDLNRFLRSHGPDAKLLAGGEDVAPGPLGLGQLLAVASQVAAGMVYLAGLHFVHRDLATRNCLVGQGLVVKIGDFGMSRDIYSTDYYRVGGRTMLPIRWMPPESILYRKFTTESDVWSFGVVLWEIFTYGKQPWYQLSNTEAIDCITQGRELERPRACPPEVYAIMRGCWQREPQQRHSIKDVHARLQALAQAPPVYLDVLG

Row | Structure (SMILES) | IC50 [nM]
1 | CCCN(C)S(=O)(=O)NC(=O)c1cnc2ccc(N3C[C@@H](F)C[C@@H]3c3cc(F)ccc3OC3CCOCC3)cn12 [Example 88, 6-((2R,4S)-4-fluoro-2-(5-fluoro-2-((tetrahydro-2H-pyran-4-yl)oxy)phenyl)pyrrolidin-1-yl)-N—(N-methyl-N-propylsulfamoyl)imidazo[1,2-a]pyridine-3-carboxamide] | ≤ 50
2 | CC(C)(C)S(=O)(=O)NC(=O)c1cnc2ccc(N3C[C@@H](F)C[C@@H]3c3cc(F)ccc3O[C@@H]3CCOC3)cn12 [Example 59, N-(tert-butylsulfonyl)-6-((2R,4S)-4-fluoro-2-(5-fluoro-2-(((R)-tetrahydrofuran-3-yl)oxy)phenyl)pyrrolidin-1-yl)imidazo[1,2-a]pyridine-3-carboxamide] | ≤ 50
3 | COCCN(C)S(=O)(=O)NC(=O)c1cnc2ccc(N3C[C@@H](F)C[C@@H]3c3cc(F)ccc3O[C@@H]3CCOC3)cn12 [Example 76, 6-((2R,4S)-4-fluoro-2-(5-fluoro-2-(((R)-tetrahydrofuran-3-yl)oxy)phenyl)pyrrolidin-1-yl)-N—(N-(2-methoxyethyl)-N-methylsulfamoyl)imidazo[1,2-a]pyridine-3-carboxamide] | ≤ 50
4 | CC(C)(C)S(=O)(=O)NC(=O)c1cnc2ccc(N3CCC[C@@H]3c3cc(F)ccc3F)cn12 [Example 31, (R)—N-(tert-butylsulfonyl)-6-(2-(2,5-difluorophenyl)pyrrolidin-1-yl)imidazo[1,2-a]pyridine-3-carboxamide] | 100 to 500
5 | CN(c1nncs1)S(=O)(=O)NC(=O)c1cnc2ccc(N3C[C@@H](F)C[C@@H]3c3cc(F)ccc3OC3CCOCC3)cn12 [Example 97, 6-((2R,4S)-4-fluoro-2-(5-fluoro-2-((tetrahydro-2H-pyran-4-yl)oxy)phenyl)pyrrolidin-1-yl)-N—(N-methyl-N-(1,3,4-thiadiazol-2-yl)sulfamoyl)imidazo[1,2-a]pyridine-3-carboxamide] | ≤ 50
6 | CN(c1ccccn1)S(=O)(=O)NC(=O)c1cnc2ccc(N3C[C@@H](F)C[C@@H]3c3cc(F)ccc3OC3CCOCC3)cn12 [Example 104, 6-((2R,4S)-4-fluoro-2-(5-fluoro-2-((tetrahydro-2H-pyran-4-yl)oxy)phenyl)pyrrolidin-1-yl)-N—(N-methyl-N-(pyridin-2-yl)sulfamoyl)imidazo[1,2-a]pyridine-3-carboxamide] | ≤ 50
7 | CN(CC(C)(C)F)S(=O)(=O)NC(=O)c1cnc2ccc(N3C[C@@H](F)C[C@@H]3c3cc(F)ccc3OC3CCOCC3)cn12 [Example 110, 6-((2R,4S)-4-fluoro-2-(5-fluoro-2-((tetrahydro-2H-pyran-4-yl)oxy)phenyl)pyrrolidin-1-yl)-N—(N-(2-fluoro-2-methylpropyl)-N-methylsulfamoyl)imidazo[1,2-a]pyridine-3-carboxamide] | ≤ 50
8 | CCN(CC)S(=O)(=O)NC(=O)c1cnc2ccc(N3C[C@@H](F)C[C@@H]3c3cc(F)ccc3OC3CCOCC3)cn12 [Example 95, N—(N,N-diethylsulfamoyl)-6-((2R,4S)-4-fluoro-2-(5-fluoro-2-((tetrahydro-2H-pyran-4-yl)oxy)phenyl)pyrrolidin-1-yl)imidazo[1,2-a]pyridine-3-carboxamide] | ≤ 50
9 | CCOC(=O)CNC(=O)c1cnc2ccc(N3CCC[C@H]3c3cc(F)ccc3F)cn12 (single isomer, unassigned) [Example 18, Ethyl 2-(6-(2-(2,5-difluorophenyl)pyrrolidin-1-yl)imidazo[1,2-a]pyridine-3-carboxamido)acetate] | 100 to 500
10 | CCN(CCF)S(=O)(=O)NC(=O)c1cnc2ccc(N3C[C@@H](F)C[C@@H]3c3cc(F)ccc3OC3CCOCC3)cn12 [Example 102, N—(N-ethyl-N-(2-fluoroethyl)sulfamoyl)-6-((2R,4S)-4-fluoro-2-(5-fluoro-2-((tetrahydro-2H-pyran-4-yl)oxy)phenyl)pyrrolidin-1-yl)imidazo[1,2-a]pyridine-3-carboxamide] | ≤ 50
11 | O=C(NS(=O)(=O)N(CC1CC1)c1cccnc1)c1cnc2ccc(N3CCC[C@@H]3c3cc(F)ccc3F)cn12 [Example 44, (R)-N-(N-(cyclopropylmethyl)-N-(pyridin-3-yl)sulfamoyl)-6-(2-(2,5-difluorophenyl)pyrrolidin-1-yl)imidazo[1,2-a]pyridine-3-carboxamide] | 50 to 100
12 | CCN(C)S(=O)(=O)NC(=O)c1cnc2ccc(N3CCCC3c3cc(F)ccc3O[C@@H]3CCOC3)cn12 (single isomer, unassigned) [Example 63] | ≤ 50

Further lines, results first:

Row | IC50 [nM] | Structure (SMILES)
13 | 100 to 500 | O=C(NS(=O)(=O)c1ccc(N2CC[C@H](O)C2)nc1)c1cnc2ccc(N3CCC[C@@H]3c3cc(F)ccc3F)cn12 [Example 33, 6-((R)-2-(2,5-difluorophenyl)pyrrolidin-1-yl)-N-((6-((S)-3-hydroxypyrrolidin-1-yl)pyridin-3-yl)sulfonyl)imidazo[1,2-a]pyridine-3-carboxamide]
14 | ≤ 50 | O=C(NC(CO)CO)c1cnc2ccc(N3CCCC3c3cc(F)ccc3F)cn12 (centres unmarked) [Example 5, 6-(2-(2,5-difluorophenyl)pyrrolidin-1-yl)-N-(1,3-dihydroxypropan-2-yl)imidazo[1,2-a]pyridine-3-carboxamide]
15 | ≤ 50 | CCN(C)S(=O)(=O)NC(=O)c1cnc2ccc(N3CCC[C@@H]3c3cc(F)ccc3F)cn12 [Example 34, (R)-6-(2-(2,5-difluorophenyl)pyrrolidin-1-yl)-N-(N-ethyl-N-methylsulfamoyl)imidazo[1,2-a]pyridine-3-carboxamide]
16 | 100 to 500 | CCN(C)S(=O)(=O)NC(=O)c1cnc2ccc(N3CCCC3c3cc(F)cc4c3OCCO4)cn12 (single isomer, unassigned) [Example 72, N-(N-ethyl-N-methylsulfamoyl)-6-(2-(7-fluoro-2,3-dihydrobenzo [b][1,4]dioxin-5-yl)pyrrolidin-1-yl)imidazo[1,2-a]pyridine-3-carboxamide]
17 | 100 to 500 | C[C@@H](CO)NC(=O)c1cnc2ccc(N3CCC[C@@H]3c3cc(F)ccc3F)cn12 [Example 28, 6-((R)-2-(2,5-difluorophenyl)pyrrolidin-1-yl)-N—((S)-1-hydroxypropan-2-yl)imidazo[1,2-a]pyridine-3-carboxamide]
18 | 100 to 500 | CC1(S(=O)(=O)NC(=O)c2cnc3ccc(N4CCCC4c4cc(F)cc5c4OCCO5)cn23)CC1 (centres unmarked) [Example 50, 6-(2-(7-fluoro-2,3-dihydrobenzo[b][1,4]dioxin-5-yl)pyrrolidin-1-yl)-N-((1-methylcyclopropyl)sulfonyl)imidazo[1,2-a]pyridine-3-carboxamide]
19 | ≤ 50 | CN(c1ccccn1)S(=O)(=O)NC(=O)c1cnc2ccc(N3CCC[C@@H]3c3cc(F)ccc3F)cn12 [Example 47, (R)-6-(2-(2,5-difluorophenyl)pyrrolidin-1-yl)-N-(N-methyl-N-(pyridin-2-yl)sulfamoyl)imidazo[1,2-a]pyridine-3-carboxamide]
20 | 100 to 500 | CC(CO)(CO)NC(=O)c1cnc2ccc(N3CCC[C@@H]3c3cc(F)ccc3F)cn12 [Example 24, (R)-6-(2-(2,5-difluorophenyl)pyrrolidin-1-yl)-N-(1,3-dihydroxy-2-methylpropan-2-yl)imidazo[1,2-a]pyridine-3-carboxamide]

Same assay, conditions: 5 ng TrkA, 500 μM ATP, values given as bins, read-out: TrkA inhibitory activity in-vitro IC50

Row | IC50 [nM] | Structure (SMILES)
21 | 1000 to 10000 | CCN(C)S(=O)(=O)NC(=O)c1cnc2ccc(N3CCCCC3c3cc(F)ccc3F)cn12 (single isomer, unassigned) [Example 70, 6-(2-(2,5-difluorophenyl)piperidin-1-yl)-N-(N-ethyl-N-methyl-sulfamoyl)imidazo[1,2-a]pyridine-3-carboxamide]
22 | 1000 to 10000 | O=C(NS(=O)(=O)c1ccc(N2CC[C@H](O)C2)nc1)c1cnc2ccc(N3CCCCC3c3cc(F)ccc3F)cn12 (stereo partly drawn) [Example 51, 6-(2-(2,5-difluorophenyl)piperidin-1-yl)-N-((6-((S)-3-hydroxypyrrolidin-1-yl)pyridin-3-yl)sulfonyl)imidazo[1,2-a]pyridine-3-carboxamide]
23 | 1000 to 10000 | CN1CCN(C(=O)c2cnc3ccc(N4CCCC4c4cc(F)ccc4F)cn23)CC1 (centres unmarked) [Example 9, (6-(2-(2,5-difluorophenyl)pyrrolidin-1-yl)imidazo[1,2-a]pyridin-3-yl)(4-methylpiperazin-1-yl)methanone]
24 | 1000 to 10000 | CC(C)(C)S(=O)(=O)NC(=O)c1cnc2ccc(N3CCCC3c3cc(F)ccc3O[C@@H]3CCOC3)cn12 (single isomer, unassigned) [Example 66]
25 | 1000 to 10000 | CC1(S(=O)(=O)NC(=O)c2cnc3ccc(N4CCCCC4c4cc(F)cc5c4OCCO5)cn23)CC1 (single isomer, unassigned) [Example 52, 6-(2-(7-fluoro-2,3-dihydrobenzo[b][1,4]dioxin-5-yl)piperidin-1-yl)-N-((1-methylcyclopropyl)sulfonyl)imidazo[1,2-a]pyridine-3-carboxamide]

Same assay, conditions: bin with mixed units (lower bound nM, upper bound μM), read-out: TrkA inhibitory activity in-vitro IC50

Row | IC50 [nM] | Structure (SMILES)
26 | 500 to 1000 | O=C(NN1CCCCC1)c1cnc2ccc(N3CCC[C@@H]3c3cc(F)ccc3F)cn12 [Example 27, (R)-6-(2-(2,5-difluorophenyl)pyrrolidin-1-yl)-N-(piperidin-1-yl)imidazo[1,2-a]pyridine-3-carboxamide]
